Experimental data reported in publication PMC10580381 (ACS Pharmacology & Translational Science, 2023).

Assays:
[1] = in vivo; cited from earlier work
E-cadherin = experiment: Western blot of E-cadherin in H1975 cells; assay type: cell-based, human; conditions: concentration-dependent
H1975 cells [2] = experiment: Wound healing assay; assay type: cell-based, human; conditions: up to 48 h
Excerpt: After the cells had grown to about 80% confluence, a physical gap was created on the cell monolayer by scratching with a pipet tip. […] The scratch closure rate was estimated by the change in the wound width over time. It was presented as the relative gap width (%) by dividing the average distance between the two margins of the scratch at the indicated time by the initial distance at the start of the wound healing assay.

H1975 cells [3] = experiment: cells; conditions: Homo sapiens, NCI-H1975, read-out: cell viability (%)
H1650 cells = experiment: cells; conditions: Homo sapiens, NCI-H1650, read-out: cell viability (%)
H1975 cells [4] = experiment: Transwell invasion assay; assay type: cell-based, human; conditions: flunarizine 5 or 10 μM, 48 h
recombinant human HDAC8 = biological target: T1, recombinant human HDAC8 (Homo sapiens, UniProt Q9BY41); experiment: biochemical
T1 sequence (Q9BY41 1-377): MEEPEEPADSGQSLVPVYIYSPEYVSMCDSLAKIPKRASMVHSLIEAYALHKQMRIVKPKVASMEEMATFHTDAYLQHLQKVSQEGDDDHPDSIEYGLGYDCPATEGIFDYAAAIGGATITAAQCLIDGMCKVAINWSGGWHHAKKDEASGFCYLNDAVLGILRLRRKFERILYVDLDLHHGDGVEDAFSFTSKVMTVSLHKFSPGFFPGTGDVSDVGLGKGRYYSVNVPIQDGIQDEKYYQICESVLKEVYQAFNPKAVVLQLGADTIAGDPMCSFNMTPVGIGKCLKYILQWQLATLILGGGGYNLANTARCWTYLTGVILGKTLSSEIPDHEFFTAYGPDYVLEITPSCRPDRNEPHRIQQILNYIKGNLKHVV

recombinant human HDAC3 = recombinant human HDAC3 (Homo sapiens, UniProt O15379); experiment: biochemical
NSCLC cell lines = experiment: cells; assay type: cell-based; conditions: Homo sapiens, read-out: effect on cancer cell viability
vimentin = experiment: Western blot of vimentin in H1975 cells; assay type: cell-based, human; conditions: concentration-dependent
recombinant human HDAC1 = recombinant human HDAC1 (Homo sapiens, UniProt Q13547); experiment: biochemical
Sequence of recombinant human HDAC1 (Q13547 whole entry): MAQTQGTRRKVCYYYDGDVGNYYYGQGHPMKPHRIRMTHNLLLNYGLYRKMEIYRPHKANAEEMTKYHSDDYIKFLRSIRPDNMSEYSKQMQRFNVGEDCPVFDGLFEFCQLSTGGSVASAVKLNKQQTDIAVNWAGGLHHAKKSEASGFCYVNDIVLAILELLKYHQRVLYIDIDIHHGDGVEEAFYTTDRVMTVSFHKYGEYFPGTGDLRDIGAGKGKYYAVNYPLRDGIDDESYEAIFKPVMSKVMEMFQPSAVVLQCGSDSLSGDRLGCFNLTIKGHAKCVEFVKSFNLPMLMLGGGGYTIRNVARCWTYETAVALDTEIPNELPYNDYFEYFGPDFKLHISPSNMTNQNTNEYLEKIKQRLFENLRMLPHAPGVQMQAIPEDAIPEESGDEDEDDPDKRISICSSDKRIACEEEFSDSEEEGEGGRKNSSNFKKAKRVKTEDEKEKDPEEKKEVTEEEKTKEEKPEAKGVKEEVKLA

Sequence of recombinant human HDAC3 (O15379 whole entry): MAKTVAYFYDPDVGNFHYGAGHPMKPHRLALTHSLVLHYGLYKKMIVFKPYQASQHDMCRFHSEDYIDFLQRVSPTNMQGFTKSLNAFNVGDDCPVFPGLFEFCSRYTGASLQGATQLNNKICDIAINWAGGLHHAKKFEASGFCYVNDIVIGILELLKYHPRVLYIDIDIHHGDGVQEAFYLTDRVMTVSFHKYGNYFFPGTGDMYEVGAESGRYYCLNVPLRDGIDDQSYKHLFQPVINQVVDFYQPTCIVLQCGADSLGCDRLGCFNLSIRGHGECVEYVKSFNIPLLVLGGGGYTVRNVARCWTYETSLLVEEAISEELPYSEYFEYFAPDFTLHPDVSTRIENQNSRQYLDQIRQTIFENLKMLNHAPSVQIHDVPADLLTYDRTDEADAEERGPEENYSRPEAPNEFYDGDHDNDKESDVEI
Sequence of recombinant human HDAC3 (Q9Y618 395-489 partner limits assumed): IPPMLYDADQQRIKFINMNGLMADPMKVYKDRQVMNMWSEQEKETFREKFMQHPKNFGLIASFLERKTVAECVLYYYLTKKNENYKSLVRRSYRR

Compound: Fc1ccc(C(c2ccc(F)cc2)N2CCN(C/C=C/c3ccccc3)CC2)cc1 [flunarizine]
- elimination half-life [1]: around 18 days
- E-cadherin expression (E-cadherin): upregulate
- cancer cell migration (H1975 cells [2]): inhibited the cell migration ability
- viability at 2.5 µM (H1975 cells [3]): 95 ± 8%
- viability at 5 µM (H1975 cells [3]): 94 ± 6%
- viability at 10 µM (H1975 cells [3]): 86 ± 7%
- effect on cell viability of BEAS-2B (BEAS-2B): did not appreciably affect the cell viability
- viability at 2.5 µM (H1650 cells): 93 ± 4%
- viability at 5 µM (H1650 cells): 92 ± 5%
- viability at 10 µM (H1650 cells): 87 ± 6%
- cancer cell invasion (H1975 cells [4]): inhibition
- IC50 (recombinant human HDAC8): 5500 ± 450 nM
- IC50 (recombinant human HDAC3): 305 ± 31 nM
- viability at 20 µM (NSCLC cell lines): ≤ 25%
- vimentin expression (vimentin): downregulate
- IC50 (recombinant human HDAC1): 285 ± 15 nM
